The record followed here is patent US20180214428A1, “3-(1H-INDOL-2-YL)-1H-PYRAZOLO[3,4-B]PYRIDINES AND THERAPEUTIC USES THEREOF” (Samumed, LLC, priority 2015, published 2018).

Assay [1] concerns Wnt activity (Sp5-Luc reporter gene, SW480 colon carcinoma cells). Nature of the assay: Screening assay for Wnt activity: Sp5-Luc reporter gene assay in SW480 cells. It counts as cell-based, human. Particulars: for EC50: overnight incubation; for inhibition at 10 µM: given for EC50 of >10 μM, read-out: percent inhibition at 10 μM. In outline: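 SW480 cells stably transduced with a luciferase reporter driven by an Sp5 promoter of eight TCF/LEF sites were plated at 4,000 cells/well in 1% FBS medium. They were exposed overnight at 37° C to a 10-point 1:3 dilution series from 10 μM (0.1% DMSO). Luminescence was normalized to DMSO for four-parameter EC50, or percent inhibition at 10 μM.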
A general note: Reporter assays use an easily measured gene product as a stand-in for the process of interest.

Another assay deals with SW480 colon cancer cells. As to the kind of experiment: Cell viability assay (CellTiter-Blue) in SW480 colon cancer cells. In kind it is cell-based, human. The following applies: for EC50: four days, CellTiter-Blue; for inhibition at 10 µM: given for EC50 of >10 μM, read-out: percent inhibition at 10 μM. The method, boiled down:
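Resazurin reduction (Ex 560/Em 590 nm, ~3 h reagent incubation) served as the viability read-out after SW480 cells were treated for four days at 37 °C. Doses ran from 10 μM down to 0.0045 μM in eight 1:3 steps. Curves fitted non-linearly for EC50, else % inhibition at 10 μM reported.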

Assay [2] deals with primary human fibroblasts derived from IPF patients (LL29 cells). As to the kind of experiment: Inhibition of the fibrotic process: αSMA staining in TGF-β1 treated LL29 fibroblasts. It counts as cell-based. The following applies: for EC50: TGF-β1 20 ng/mL, 4 days, % αSMA positive cells. The method, boiled down: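 IPF patient-derived LL29 fibroblasts in 1% FBS medium got compound (11-point, 10 μM to 1.87 nM, 0.1% DMSO) plus TGF-β1 20 ng/mL, 4 days at 37° C. αSMA-positive live cells (SYTOX-excluded) were imaged, normalized to TGF-β1 controls and fitted for EC50; % inhibition at 10 μM given when EC50 >10 μM.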

Each structure is given as a SMILES string.

As a reminder, the EC50 is the midpoint of the concentration-response curve. A higher EC50 goes with a need for much substance. In general, inhibition refers to how much of the control response was suppressed. As to `CC(C)C(=O)Nc1cncc(-c2cnc3[nH]nc(-c4cc5c(N6CCN(C)CC6)cccc5[nH]4)c3c2)c1` [Compound 209, N-(5-(3-(4-(4-Methylpiperazin-1-yl)-1H-indol-2-yl)-1H-pyrazolo[3,4-b]pyridin-5-yl)pyridin-3-yl)isobutyramide], the EC50 is 2.71 µM in assay [1] (Homo sapiens); more than 10 µM in the assay on SW480 colon cancer cells (Homo sapiens, 96 h); 5.62 µM in assay [2] (Homo sapiens, Fibroblast, 96 h). Besides, in the assay with SW480 colon cancer cells (Homo sapiens), the inhibition at 10 µM is 41.5%.
In the case of `Fc1ccccc1-c1cccc2[nH]c(-c3n[nH]c4ncc(C5CCNCC5)cc34)cc12` [Compound 539, 3-(4-(2-Fluorophenyl)-1H-indol-2-yl)-5-(piperidin-4-yl)-1H-pyrazolo[3,4-b]pyridine], the inhibition at 10 µM is 47.2% in assay [1] (Homo sapiens) and 51.5% in the assay on SW480 colon cancer cells (Homo sapiens). Further, the EC50 in assay [1] (Homo sapiens) was more than 10 µM; with SW480 colon cancer cells (Homo sapiens, 96 h) it was more than 10 µM; in assay [2] (Homo sapiens, Fibroblast, 96 h) it was 5.08 µM.
For `CCCCC(=O)Nc1cncc(-c2cnc3[nH]nc(-c4cc5c(-c6ccccn6)cccc5[nH]4)c3c2)c1` [Compound 136, N-(5-(3-(4-(Pyridin-2-yl)-1H-indol-2-yl)-1H-pyrazolo[3,4-b]pyridin-5-yl)pyridin-3-yl)pentanamide], the EC50 in assay [1] (Homo sapiens) was 0.385 µM; in the assay on SW480 colon cancer cells (Homo sapiens, 96 h) it was 4.71 µM; in assay [2] (Homo sapiens, Fibroblast, 96 h), 2.67 µM.
As for `O=C(Nc1cncc(-c2cnc3[nH]nc(-c4cc5ccccc5[nH]4)c3c2)c1)C1CCCCC1` [Compound 249, N-(5-(3-(1H-Indol-2-yl)-1H-pyrazolo[3,4-b]pyridin-5-yl)pyridin-3-yl) cyclohexanecarboxamide], the 50% effective concentration (EC50) in assay [1] (Homo sapiens) was 2.27 µM; in the assay on SW480 colon cancer cells (Homo sapiens, 96 h) it was more than 10 µM; in assay [2] (Homo sapiens, Fibroblast, 96 h) it was more than 10 µM. Moreover, the inhibition at 10 µM is 6.7% with SW480 colon cancer cells (Homo sapiens) and 0% in assay [2] (Homo sapiens, Fibroblast, at 10 μM, given for EC50 of >10 μM, TGF-β1, αSMA, read-out: percent inhibition at 10 μM).
For the compound `CN(C)c1cncc(-c2cnc3[nH]nc(-c4cc5c(-c6cccc(F)c6)cccc5[nH]4)c3c2)c1` [Compound 5, 5-(3-(4-(3-Fluorophenyl)-1H-indol-2-yl)-1H-pyrazolo[3,4-b]pyridin-5-yl)-N,N-dimethylpyridin-3-amine], the concentration for a half-maximal effect (EC50) amounted to 0.672 µM in assay [1] (Homo sapiens); 2.59 µM in the assay with SW480 colon cancer cells (Homo sapiens, 96 h); 0.95 µM in assay [2] (Homo sapiens, Fibroblast, 96 h).
The corresponding values for `Cc1ncc(-c2cnc3[nH]nc(-c4cc5ccccc5[nH]4)c3c2)n1C` [Compound 655, 5-(1,2-Dimethyl-1H-imidazol-5-yl)-3-(1H-indol-2-yl)-1H-pyrazolo[3,4-b]pyridine] are 3.34 µM, 3.72 µM and 3.88 µM.
As to `c1ccc(-c2cccc3[nH]c(-c4n[nH]c5ncc(-c6cncnc6)cc45)cc23)nc1` [Compound 143, 3-(4-(Pyridin-2-yl)-1H-indol-2-yl)-5-(pyrimidin-5-yl)-1H-pyrazolo[3,4-b]pyridine], the EC50 in assay [1] (Homo sapiens) was determined as 2.02 µM; with SW480 colon cancer cells (Homo sapiens, 96 h), 9.91 µM; in assay [2] (Homo sapiens, Fibroblast, 96 h) it was 4.96 µM.
The corresponding values for `CN1CCN(c2cccc3[nH]c(-c4n[nH]c5ncc(-c6cncc(NC(=O)C7CCCC7)c6)cc45)cc23)CC1` [Compound 222, N-(5-(3-(4-(4-Methylpiperazin-1-yl)-1H-indol-2-yl)-1H-pyrazolo[3,4-b]pyridin-5-yl)pyridin-3-yl)cyclopentanecarboxamide] are 1.04 µM, 0.828 µM and 0.79 µM.
In the case of `Oc1cncc(-c2cnc3[nH]nc(-c4cc5c(-c6cccs6)cccc5[nH]4)c3c2)c1` [Compound 711, 5-(3-(4-(Thiophen-2-yl)-1H-indol-2-yl)-1H-pyrazolo[3,4-b]pyridin-5-yl) pyridin-3-ol], the half-maximal effective concentration (EC50) in assay [1] (Homo sapiens) was 9.77 µM; with SW480 colon cancer cells (Homo sapiens, 96 h), more than 10 µM; in assay [2] (Homo sapiens, Fibroblast, 96 h), 0.456 µM. Further, the inhibition at 10 µM with SW480 colon cancer cells (Homo sapiens) is 10.3%.
The corresponding values for `CC(C)(C)CC(=O)Nc1cncc(-c2cnc3[nH]nc(-c4cc5c(-c6ccccc6F)cccc5[nH]4)c3c2)c1` [Compound 61, N-(5-(3-(4-(2-Fluorophenyl)-1H-indol-2-yl)-1H-pyrazolo[3,4-b]pyridin-5-yl)pyridin-3-yl)-3,3-dimethylbutanamide] are 2.17 µM, more than 10 µM, 4.97 µM and 25.2%.
For the compound `Fc1ccc(-c2cccc3[nH]c(-c4n[nH]c5ncc(-c6cncc(CN7CCCC7)c6)cc45)cc23)cc1` [Compound 35, 3-(4-(4-Fluorophenyl)-1H-indol-2-yl)-5-(5-(pyrrolidin-1-ylmethyl)pyridin-3-yl)-1H-pyrazolo[3,4-b]pyridine], the EC50 in assay [1] (Homo sapiens) stood at 2.3 µM; in the assay on SW480 colon cancer cells (Homo sapiens, 96 h) it was 4.83 µM; in assay [2] (Homo sapiens, Fibroblast, 96 h), 2.35 µM.
Regarding `CN1CCN(c2cccc3[nH]c(-c4n[nH]c5ncc(-c6ccncc6)cc45)cc23)CC1` [Compound 218, 3-(4-(4-Methylpiperazin-1-yl)-1H-indol-2-yl)-5-(pyridin-4-yl)-1H-pyrazolo[3,4-b]pyridine], in assay [1] (Homo sapiens), the inhibition at 10 µM came out at 7.7%. Moreover, the 50% effective concentration (EC50) is more than 10 µM in assay [1] (Homo sapiens); 9.07 µM in the assay with SW480 colon cancer cells (Homo sapiens, 96 h); 3.81 µM in assay [2] (Homo sapiens, Fibroblast, 96 h).
Take `O=C(Nc1cncc(-c2cnc3[nH]nc(-c4cc5c(-c6cccnc6)cccc5[nH]4)c3c2)c1)C1CCC1` [Compound 89, N-(5-(3-(4-(Pyridin-3-yl)-1H-indol-2-yl)-1H-pyrazolo[3,4-b]pyridin-5-yl)pyridin-3-yl)cyclobutanecarboxamide]: the EC50 in assay [1] (Homo sapiens) was 0.23 µM; with SW480 colon cancer cells (Homo sapiens, 96 h), 0.565 µM; in assay [2] (Homo sapiens, Fibroblast, 96 h), 0.147 µM.
`c1cncc(-c2cnc3[nH]nc(-c4cc5ccccc5[nH]4)c3c2)c1` [Compound 231, 3-(1H-Indol-2-yl)-5-(pyridin-3-yl)-1H-pyrazolo[3,4-b]pyridine]: the EC50 is 0.66 µM in assay [1] (Homo sapiens); more than 10 µM in the assay on SW480 colon cancer cells (Homo sapiens, 96 h); 8.69 µM in assay [2] (Homo sapiens, Fibroblast, 96 h). In the assay on SW480 colon cancer cells (Homo sapiens), the inhibition at 10 µM was 9.1%.
Turning to `c1ccc2[nH]c(-c3n[nH]c4ncc(-c5cncc(CN6CCCC6)c5)cc34)cc2c1` [Compound 240, 3-(1H-Indol-2-yl)-5-(5-(pyrrolidin-1-ylmethyl)pyridin-3-yl)-1H-pyrazolo[3,4-b]pyridine], the EC50 in assay [1] (Homo sapiens) amounted to 1.41 µM; in the assay with SW480 colon cancer cells (Homo sapiens, 96 h) it was 9.32 µM; in assay [2] (Homo sapiens, Fibroblast, 96 h) it was 0.859 µM.
In the case of `CN(C)c1cncc(-c2cnc3[nH]nc(-c4cc5c(N6CCCCC6)cccc5[nH]4)c3c2)c1` [Compound 151, N,N-Dimethyl-5-(3-(4-(piperidin-1-yl)-1H-indol-2-yl)-1H-pyrazolo[3,4-b]pyridin-5-yl)pyridin-3-amine], the 50% effective concentration (EC50) in assay [1] (Homo sapiens) is 0.982 µM; in the assay with SW480 colon cancer cells (Homo sapiens, 96 h), 5.26 µM; in assay [2] (Homo sapiens, Fibroblast, 96 h), 1.63 µM.
`CN(C)CCNc1cc(F)cc(-c2cccc3[nH]c(-c4n[nH]c5ncc(-c6ccncc6)cc45)cc23)c1` [Compound 440]: the 50% effective concentration (EC50) is 6.07 µM in assay [1], 4.14 µM in the assay on SW480 colon cancer cells and more than 10 µM in assay [2]. Besides, the “percent inhibition at 10 μM” value in assay [2] (at 10 μM, given for EC50 of >10 μM, TGF-β1, αSMA) is 0%.
Consider `c1ccc(CNCc2cncc(-c3cnc4[nH]nc(-c5cc6ncccc6[nH]5)c4c3)c2)cc1` [Compound 502, 1-(5-(3-(1H-Pyrrolo[3,2-b]pyridin-2-yl)-1H-pyrazolo[3,4-b]pyridin-5-yl)pyridin-3-yl)-N-benzylmethanamine], for which the half-maximal effective concentration (EC50) is 3.96 µM in assay [1] (Homo sapiens); more than 10 µM in the assay on SW480 colon cancer cells (Homo sapiens, 96 h); 3.12 µM in assay [2] (Homo sapiens, Fibroblast, 96 h). For the same compound, the inhibition at 10 µM in the assay with SW480 colon cancer cells (Homo sapiens) came to 9.8%.
The corresponding values for `O=C(Nc1cncc(-c2cnc3[nH]nc(-c4cc5c(-c6ccncc6)cccc5[nH]4)c3c2)c1)C1CCCCC1` [Compound 115, N-(5-(3-(4-(Pyridin-4-yl)-1H-indol-2-yl)-1H-pyrazolo[3,4-b]pyridin-5-yl)pyridin-3-yl)cyclohexanecarboxamide] are 5.42 µM, more than 10 µM, 4.98 µM and 24.3%.
The corresponding values for `Fc1cccc(-c2cccc3[nH]c(-c4n[nH]c5ncc(-c6cccnc6)cc45)cc23)c1` [Compound 2, 3-(4-(3-Fluorophenyl)-1H-indol-2-yl)-5-(pyridin-3-yl)-1H-pyrazolo[3,4-b]pyridine] are 0.295 µM, more than 10 µM, 1.43 µM and 4%.
With `c1ccc(-c2cccc3[nH]c(-c4n[nH]c5ncc(-c6cncc(CN7CCCC7)c6)cc45)cc23)nc1` [Compound 131, 3-(4-(Pyridin-2-yl)-1H-indol-2-yl)-5-(5-(pyrrolidin-1-ylmethyl)pyridin-3-yl)-1H-pyrazolo[3,4-b]pyridine], the EC50 in assay [1] (Homo sapiens) worked out at 4.53 µM; with SW480 colon cancer cells (Homo sapiens, 96 h), 1.19 µM; in assay [2] (Homo sapiens, Fibroblast, 96 h), 0.97 µM.
The corresponding values for `c1cncc(-c2cnc3[nH]nc(-c4cc5c(-c6cccnc6)cccc5[nH]4)c3c2)c1` [Compound 74, 5-(Pyridin-3-yl)-3-(4-(pyridin-3-yl)-1H-indol-2-yl)-1H-pyrazolo[3,4-b]pyridine] are 0.57 µM, 3.52 µM and 0.41 µM.
